Converted amounts (≈) assume the structure as drawn.
How the values were obtained:
[1] = test system: Ehrlich carcinoma; experiment: Activities against Ehrlich carcinoma (antitumor effect, survival time in mice); format: in vivo, ICR female mice; details: Mus musculus, ip, 720 h, intraperitoneal, once a day for 10 days, average survival time counted 30 days after implantation, read-out: Antitumor effect (T/C %)
Protocol: (1) Activities against Ehrlich carcinoma:
To 8 ICR female mice as a group, Ehrlich carcinoma cells were intraperitoneally implanted in an amount of 10^5 cells per mouse. From an elapsed time of 24 hours after the implantation, the compound (I) of this invention which was suspended in physiological saline containing 0.5% of CMC-Na was intraperitoneally administered in predetermined dosages (0.4 mg/kg, 4.0 mg/kg and 40.0 mg/kg), once a day and for 10 days.
Upon an elapsed time of 30 days after the implantation of the carcinoma, the survival time of each mouse was counted. The average survival time of Control Group (C) and that of Group (T), in which the compound of this invention was administered, were obtained respectively. Antitumor effect (T/C %) was then determined in accordance with the following equation. [formula]

[2] = test system: Leukemia L-5178Y cells; experiment: Cell-killing activities (leukemia L-5178Y cells); format: cell-based; details: Mus musculus, L5178Y; 48 hours, 37° C., 5% CO2; live cells counted microscopically, probit diagram method
Protocol: (2) Cell-killing activities:
Leukemia L-5178Y cells were provided to a concentration of 2×10^5cells/ml in PRMI 1640 culture medium which contained 10% of bovine fetus albumin. To portions of the above-prepared culture medium, the compound of this invention was added to concentrations 3.125, 6.25, 12.5, 25, 50, 100 and 300 μg/ml respectively. After culturing them for 48 hours in a 5% CO2 incubator of 37° C., the numbers of live cells on respective portions of the culture were counted microscopically. Percentage proliferation was determined relative to Control and 50% Inhibitory Concentration (IC50) was obtained by the probit diagram method.

SMILES | response vs control in vivo at 0.4 mg/kg [1] [%] | response vs control in vivo at 4 mg/kg [1] [%] | response vs control in vivo at 40 mg/kg [1] [%] | IC50 [2] [µg/mL]
CC(=O)O[C@H]1[C@H](O)[C@@H](O)[C@@H](O[C@H]2O[C@H](CO)[C@@H](OC(C)=O)[C@H](O)[C@H]2O)O[C@@H]1CO [Compound 11] | 154 | 105 | 114 | 
CCCC(=O)O[C@H]1[C@H](O)[C@@H](O)[C@@H](O[C@H]2O[C@H](CO)[C@@H](OC(=O)CCC)[C@H](O)[C@H]2O)O[C@@H]1CO [Compound 12] | 141 | 142 | 114 | 
CCCCCC(=O)O[C@H]1[C@H](O)[C@@H](O)[C@@H](O[C@H]2O[C@H](CO)[C@@H](OC(=O)CCCCC)[C@H](O)[C@H]2O)O[C@@H]1CO [Compound 13] | 127 | 120 | 103 | > 300
CCCCCCCC(=O)O[C@H]1[C@H](O)[C@@H](O)[C@@H](O[C@H]2O[C@H](CO)[C@@H](OC(=O)CCCCCCC)[C@H](O)[C@H]2O)O[C@@H]1CO [Compound 14] | 136 | 117 | 183 | 35.1 (≈ 59 µM)
CCCCCCCCCC(=O)O[C@H]1[C@H](O)[C@@H](O)[C@@H](O[C@H]2O[C@H](CO)[C@@H](OC(=O)CCCCCCCCC)[C@H](O)[C@H]2O)O[C@@H]1CO [Compound 15] | 121 | 152 | 188 | 11.2 (≈ 17.2 µM)
CCCCCCCCCCCC(=O)O[C@H]1[C@H](O)[C@@H](O)[C@@H](O[C@H]2O[C@H](CO)[C@@H](OC(=O)CCCCCCCCCCC)[C@H](O)[C@H]2O)O[C@@H]1CO [Compound 16] | 102 | 180 | 225 | 8.4 (≈ 11.9 µM)
CCCCCCCCCCCCCC(=O)O[C@H]1[C@H](O)[C@@H](O)[C@@H](O[C@H]2O[C@H](CO)[C@@H](OC(=O)CCCCCCCCCCCCC)[C@H](O)[C@H]2O)O[C@@H]1CO [Compound 17] | 98 | 203 | 203 | 12.6 (≈ 16.5 µM)
CCCCCCCCCCCCCCCC(=O)O[C@H]1[C@H](O)[C@@H](O)[C@@H](O[C@H]2O[C@H](CO)[C@@H](OC(=O)CCCCCCCCCCCCCCC)[C@H](O)[C@H]2O)O[C@@H]1CO [Compound 18] | 125 | 216 | 189 | > 300
CCCCCCCCCCCCCCCCCC(=O)O[C@H]1[C@H](O)[C@@H](O)[C@@H](O[C@H]2O[C@H](CO)[C@@H](OC(=O)CCCCCCCCCCCCCCCCC)[C@H](O)[C@H]2O)O[C@@H]1CO [Compound 19, 4,4'-di-O-stearoyl-α,α-trehalose] | 98 | 183 | 198 | 
CCCCCCCCCCCCCCCCCCCCCC(=O)O[C@H]1[C@H](O)[C@@H](O)[C@@H](O[C@H]2O[C@H](CO)[C@@H](OC(=O)CCCCCCCCCCCCCCCCCCCCC)[C@H](O)[C@H]2O)O[C@@H]1CO [Compound 20] | 165 | 179 | 157 | 

From patent US4684719A, “α,α-trehalose fatty acid diester derivative” (SS Pharmaceutical Co., Ltd., priority 1984, dated 1987)
